Source: publication PMC7472518, “Ultrasensitive Detection of Enzymatic Activity Using Single Molecule Arrays” (Journal of the American Chemical Society, 2020)
Counter-ions that a name gives are not always drawn.

Experiments:
Abl = biological target: T1, Abl (Homo sapiens, UniProt P00519); assay: eSimoa ATP titration for Km, Abl; type: biochemical; details: calculated from the EC50 of the ATP response curve
T1 construct: purchased Millipore (Burlington, MA) 14-529
Excerpt: (§1) We first determined the Km values for Src and Abl. Different concentrations of ATP were used in the phosphorylation reaction, while the concentrations of peptide-modified beads and enzymes were kept constant.

Src = biological target: T2, Src (Homo sapiens, UniProt P12931); assay: eSimoa ATP titration for Km, Src; type: biochemical; details: calculated from the EC50 of the ATP response curve
T2 construct: purchased Millipore (Burlington, MA) 14-326
Excerpt: as §1

Bcr-Abl = details: read-out: IC50 (reported); cited from earlier work

T1 sequence (P00519 whole entry): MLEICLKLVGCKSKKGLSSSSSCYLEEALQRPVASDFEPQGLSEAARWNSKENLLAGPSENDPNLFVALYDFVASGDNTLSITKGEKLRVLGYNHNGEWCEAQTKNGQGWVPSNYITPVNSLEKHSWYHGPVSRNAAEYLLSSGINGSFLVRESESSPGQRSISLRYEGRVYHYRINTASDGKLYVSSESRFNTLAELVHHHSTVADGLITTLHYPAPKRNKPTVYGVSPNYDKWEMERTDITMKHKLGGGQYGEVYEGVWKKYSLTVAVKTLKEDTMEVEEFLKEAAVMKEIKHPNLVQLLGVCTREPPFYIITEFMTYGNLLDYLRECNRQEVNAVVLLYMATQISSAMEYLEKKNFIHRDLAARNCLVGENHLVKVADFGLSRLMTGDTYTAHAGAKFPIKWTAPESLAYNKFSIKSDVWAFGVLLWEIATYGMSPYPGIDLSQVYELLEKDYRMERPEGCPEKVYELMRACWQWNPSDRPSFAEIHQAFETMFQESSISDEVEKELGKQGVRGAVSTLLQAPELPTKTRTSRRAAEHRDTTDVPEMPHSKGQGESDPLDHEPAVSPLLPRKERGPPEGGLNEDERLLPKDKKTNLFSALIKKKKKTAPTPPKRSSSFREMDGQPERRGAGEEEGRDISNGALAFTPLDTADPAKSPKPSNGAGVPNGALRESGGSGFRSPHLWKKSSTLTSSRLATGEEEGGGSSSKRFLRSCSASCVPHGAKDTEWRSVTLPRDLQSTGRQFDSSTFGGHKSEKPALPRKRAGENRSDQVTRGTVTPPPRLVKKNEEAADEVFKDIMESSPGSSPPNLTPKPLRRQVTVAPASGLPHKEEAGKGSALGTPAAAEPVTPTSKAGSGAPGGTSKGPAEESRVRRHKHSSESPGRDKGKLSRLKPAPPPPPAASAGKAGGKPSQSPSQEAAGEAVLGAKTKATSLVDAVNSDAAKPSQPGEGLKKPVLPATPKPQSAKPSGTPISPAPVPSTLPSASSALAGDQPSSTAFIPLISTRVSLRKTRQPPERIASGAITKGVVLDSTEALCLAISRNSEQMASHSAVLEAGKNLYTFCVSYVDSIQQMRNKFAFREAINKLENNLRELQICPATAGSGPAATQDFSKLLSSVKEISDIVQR

| SMILES | Km (Abl) | Km (Src) | IC50 (Bcr-Abl) |
| --- | --- | --- | --- |
| Nc1ncnc2c1ncn2[C@@H]1O[C@H](COP(=O)(O)OP(=O)(O)OP(=O)(O)O)[C@@H](O)[C@H]1O [ATP, adenosine 5′-triphosphate (ATP) disodium salt hydrate] | 3.69 µM | 29.2 µM | – |
